Data as given in PMC6691788, “Design and synthesis of phthalazine-based compounds as potent anticancer agents with potential antiangiogenic activity via VEGFR-2 inhibition” (Journal of Enzyme Inhibition and Medicinal Chemistry, 2019).

Tests used:
Assay in all cases: NCI 60 cell panel SRB screen
CCRF-CEM = type: cell-based, human
RPMI-8226 = type: cell-based; settings: Homo sapiens
SR = type: cell-based; settings: Homo sapiens
A549/ATCC = type: cell-based; settings: Homo sapiens
HOP-92 = type: cell-based; settings: Homo sapiens
NCI-H226 = type: cell-based; settings: Homo sapiens
NCI-H23 = type: cell-based; settings: Homo sapiens
NCI-H460 = type: cell-based; settings: Homo sapiens
HCC-2998 = type: cell-based; settings: Homo sapiens
HCT-116 = type: cell-based; settings: Homo sapiens
KM12 = type: cell-based; settings: Homo sapiens
SW-620 = type: cell-based; settings: Homo sapiens
SNB-19 = type: cell-based; settings: Homo sapiens
SNB-75 = type: cell-based; settings: Homo sapiens
U251 = type: cell-based; settings: Homo sapiens, U-251
MALME-3M = type: cell-based; settings: Homo sapiens
M14 = type: cell-based; settings: Homo sapiens
SK-MEL-28 = type: cell-based; settings: Homo sapiens
SK-MEL-5 = type: cell-based; settings: Homo sapiens
OVCAR-5 = type: cell-based; settings: Homo sapiens
OVCAR-8 = type: cell-based; settings: Homo sapiens
NCI/ADR-RES = type: cell-based; settings: Homo sapiens
SK-OV-3 = type: cell-based; settings: Homo sapiens
ACHN = type: cell-based; settings: Homo sapiens
RXF 393 = type: cell-based; settings: Homo sapiens
SN12C = type: cell-based; settings: Homo sapiens
TK-10 = type: cell-based, human; settings: Homo sapiens; TK-10, single dose 10 μM; read-out: percent cell growth promotion
[1] = 5 log dose, 48 h, read-out: LC50 (the source's name)
[2] = single dose 10 μM, read-out: percent cell growth promotion

`Clc1ccc(Nc2nnc(CNc3ccccc3)c3ccccc23)cc1` [Compound 16a, N-(4-Chlorophenyl)-4-((phenylamino)methyl)phthalazin-1-amine] was tested, and the TGI (CCRF-CEM; 5 log dose) was 17.6 µM, the GI50 (CCRF-CEM; Homo sapiens, 5 log dose) was 3.53 µM and the CC50 (CCRF-CEM; Homo sapiens, 5 log dose, 48 h, read-out: LC50 (the source's name)) was over 25 µM. For the same compound, the activity at 10 µM (CCRF-CEM; Homo sapiens, single dose 10 μM, read-out: percent cell growth promotion) was 12.4%, the GI50 (RPMI-8226; RPMI-8226, 5 log dose) was 2.1 µM and the IC (TGI) (RPMI-8226; RPMI-8226, 5 log dose) was 7.71 µM. The CC50 (RPMI-8226; RPMI-8226, 5 log dose, 48 h, read-out: LC50 (the source's name)) was over 25 µM, the activity at 10 µM (RPMI-8226; RPMI-8226, single dose 10 μM, read-out: percent cell growth promotion) was 3.35% and the GI50 (SR; 5 log dose) was 1.75 µM. For the same compound, the IC (TGI) (SR; 5 log dose) was 12.3 µM, the CC50 (SR; [1]) was over 25 µM and the activity at 10 µM (SR; [2]) was -9.19%. It also gave a GI50 (A549/ATCC; 5 log dose) of 3.17 µM, an IC (TGI) (A549/ATCC; 5 log dose) of 20 µM and an LC50 (concentration killing 50% of cells) (A549/ATCC; 5 log dose, 48 h) of over 25 µM. For the same compound, the activity at 10 µM (A549/ATCC; [2]) was 20.3%, the GI50 (HOP-92; HOP-92, 5 log dose) was 0.77 µM and the IC (TGI) (HOP-92; HOP-92, 5 log dose) was 6.29 µM. For the same compound, the CC50 (HOP-92; HOP-92, 5 log dose, 48 h, read-out: LC50 (the source's name)) was over 25 µM, the activity at 10 µM (HOP-92; HOP-92, single dose 10 μM, read-out: percent cell growth promotion) was -19.4% and the GI50 (NCI-H226; NCI-H226, 5 log dose) was 2.52 µM. For the same compound, the IC (TGI) (NCI-H226; NCI-H226, 5 log dose) was 7.98 µM, the CC50 (NCI-H226; NCI-H226, 5 log dose, 48 h, read-out: LC50 (the source's name)) was over 25 µM and the activity at 10 µM (NCI-H226; NCI-H226, single dose 10 μM, read-out: percent cell growth promotion) was 25%. For the same compound, the GI50 (NCI-H23; NCI-H23, 5 log dose) was 2.5 µM, the IC (TGI) (NCI-H23; NCI-H23, 5 log dose) was 16.4 µM and the CC50 (NCI-H23; NCI-H23, 5 log dose, 48 h, read-out: LC50 (the source's name)) was over 25 µM. It also gave an activity at 10 µM (NCI-H23; NCI-H23, single dose 10 μM, read-out: percent cell growth promotion) of 9.95%, a GI50 (NCI-H460; NCI-H460, 5 log dose) of 3.21 µM and an IC (TGI) (NCI-H460; NCI-H460, 5 log dose) of 9.98 µM. It also gave an LC50 (concentration causing 50% cell kill) (NCI-H460; NCI-H460, 5 log dose, 48 h) of over 25 µM, an activity at 10 µM (NCI-H460; NCI-H460, single dose 10 μM, read-out: percent cell growth promotion) of 17.6% and a GI50 (HCC-2998; HCC-2998, 5 log dose) of 4.85 µM. For the same compound, the IC (TGI) (HCC-2998; HCC-2998, 5 log dose) was 1.59 µM, the LC50 (50% lethal concentration) (HCC-2998; HCC-2998, 5 log dose, 48 h) was over 25 µM and the activity at 10 µM (HCC-2998; HCC-2998, single dose 10 μM, read-out: percent cell growth promotion) was 18.3%. The GI50 (HCT-116; HCT-116, 5 log dose) was 1.2 µM, the IC (TGI) (HCT-116; HCT-116, 5 log dose) was 5.02 µM and the LC50 (lethal concentration 50%) (HCT-116; HCT-116, 5 log dose, 48 h) was 13.3 µM. It also gave an activity at 10 µM (HCT-116; HCT-116, single dose 10 μM, read-out: percent cell growth promotion) of 9.94%, a GI50 (KM12; KM12, 5 log dose) of 3.05 µM and an IC (TGI) (KM12; KM12, 5 log dose) of 9.91 µM. For the same compound, the CC50 (KM12; KM12, 5 log dose, 48 h, read-out: LC50 (the source's name)) was over 25 µM, the activity at 10 µM (KM12; KM12, single dose 10 μM, read-out: percent cell growth promotion) was 8.93% and the GI50 (SW-620; SW-620, 5 log dose) was 3.84 µM. It also gave an IC (TGI) (SW-620; SW-620, 5 log dose) of 11.1 µM, a CC50 (SW-620; SW-620, 5 log dose, 48 h, read-out: LC50 (the source's name)) of over 25 µM and an activity at 10 µM (SW-620; SW-620, single dose 10 μM, read-out: percent cell growth promotion) of 30.8%. The GI50 (SNB-19; SNB-19, 5 log dose) was 4.71 µM, the IC (TGI) (SNB-19; SNB-19, 5 log dose) was 22.7 µM and the CC50 (SNB-19; SNB-19, 5 log dose, 48 h, read-out: LC50 (the source's name)) was over 25 µM. For the same compound, the activity at 10 µM (SNB-19; SNB-19, single dose 10 μM, read-out: percent cell growth promotion) was 25.9%, the GI50 (SNB-75; SNB-75, 5 log dose) was 0.87 µM and the IC (TGI) (SNB-75; SNB-75, 5 log dose) was 7.05 µM. It also gave an LC50 (concentration killing 50% of cells) (SNB-75; SNB-75, 5 log dose, 48 h) of over 25 µM, an activity at 10 µM (SNB-75; SNB-75, single dose 10 μM, read-out: percent cell growth promotion) of 19.6% and a GI50 (U251; U251, 5 log dose) of 3.28 µM. For the same compound, the IC (TGI) (U251; U251, 5 log dose) was 7.33 µM, the CC50 (U251; U251, 5 log dose, 48 h, read-out: LC50 (the source's name)) was 16.4 µM and the activity at 10 µM (U251; U251, single dose 10 μM, read-out: percent cell growth promotion) was 9.66%. For the same compound, the GI50 (MALME-3M; Malme-3M) was 2.66 µM, the IC (TGI) (MALME-3M; Malme-3M, read-out: TGI) was 9.92 µM and the activity at 10 µM (MALME-3M; Malme-3M, read-out: percent cell growth promotion) was -13.8%. It also gave a CC50 (MALME-3M; MALME-3M, 5 log dose, 48 h, read-out: LC50 (the source's name)) of over 25 µM, a GI50 (M14; M14) of 1.74 µM and an IC (TGI) (M14; M14, read-out: TGI) of 6.65 µM. For the same compound, the activity at 10 µM (M14; M14, read-out: percent cell growth promotion) was 5.8%, the CC50 (M14; M14, 5 log dose, 48 h, read-out: LC50 (the source's name)) was 20.6 µM and the GI50 (SK-MEL-28; SK-MEL-28) was 3.67 µM. The IC (TGI) (SK-MEL-28; SK-MEL-28, read-out: TGI) was 10.5 µM, the activity at 10 µM (SK-MEL-28; SK-MEL-28, read-out: percent cell growth promotion) was 14.9% and the CC50 (SK-MEL-28; SK-MEL-28, 5 log dose, 48 h, read-out: LC50 (the source's name)) was over 25 µM. For the same compound, the GI50 (SK-MEL-5; SK-MEL-5) was 2.08 µM, the IC (TGI) (SK-MEL-5; SK-MEL-5, read-out: TGI) was 5.27 µM and the activity at 10 µM (SK-MEL-5; SK-MEL-5, read-out: percent cell growth promotion) was -69.1%. It also gave a CC50 (SK-MEL-5; SK-MEL-5, 5 log dose, 48 h, read-out: LC50 (the source's name)) of 11.8 µM, a GI50 (OVCAR-5; OVCAR-5, 5 log dose) of 4.92 µM and an IC (TGI) (OVCAR-5; OVCAR-5, 5 log dose) of over 25 µM. The CC50 (OVCAR-5; OVCAR-5, 5 log dose, 48 h, read-out: LC50 (the source's name)) was over 25 µM, the activity at 10 µM (OVCAR-5; OVCAR-5, single dose 10 μM, read-out: percent cell growth promotion) was 41.5% and the GI50 (OVCAR-8; OVCAR-8, 5 log dose) was 4.63 µM. For the same compound, the IC (TGI) (OVCAR-8; OVCAR-8, 5 log dose) was 16.8 µM, the CC50 (OVCAR-8; OVCAR-8, 5 log dose, 48 h, read-out: LC50 (the source's name)) was over 25 µM and the activity at 10 µM (OVCAR-8; OVCAR-8, single dose 10 μM, read-out: percent cell growth promotion) was 18.2%. It also gave a GI50 (NCI/ADR-RES; 5 log dose) of 4.12 µM, an IC (TGI) (NCI/ADR-RES; 5 log dose) of 17 µM and a CC50 (NCI/ADR-RES; [1]) of over 25 µM. It also gave an activity at 10 µM (NCI/ADR-RES; [2]) of 18.8%, a GI50 (SK-OV-3; SK-OV-3, 5 log dose) of 3.17 µM and an IC (TGI) (SK-OV-3; SK-OV-3, 5 log dose) of 11.4 µM. The CC50 (SK-OV-3; SK-OV-3, 5 log dose, 48 h, read-out: LC50 (the source's name)) was over 25 µM, the activity at 10 µM (SK-OV-3; SK-OV-3, single dose 10 μM, read-out: percent cell growth promotion) was 22% and the GI50 (ACHN; 5 log dose) was 3.1 µM. For the same compound, the IC (TGI) (ACHN; 5 log dose) was over 25 µM, the CC50 (ACHN; [1]) was over 25 µM and the activity at 10 µM (ACHN; [2]) was 7.07%. It also gave a GI50 (RXF 393; RXF 393, 5 log dose) of 2.6 µM, an IC (TGI) (RXF 393; RXF 393, 5 log dose) of 8.12 µM and a CC50 (RXF 393; RXF 393, 5 log dose, 48 h, read-out: LC50 (the source's name)) of over 25 µM. It also gave an activity at 10 µM (RXF 393; RXF 393, single dose 10 μM, read-out: percent cell growth promotion) of 25.7%, a GI50 (SN12C; 5 log dose) of 3.95 µM and an IC (TGI) (SN12C; 5 log dose) of 18.9 µM. For the same compound, the CC50 (SN12C; [1]) was over 25 µM, the activity at 10 µM (SN12C; [2]) was 28.9% and the activity at 10 µM (TK-10) was -0.69%.
